Assay results reported in the Biogen ADME set (Fang et al. 2023).
Converted amounts (≈) assume the structure as drawn.

Details: for aqueous solubility: pH 6.8

Row | SMILES | MDR1-MDCK efflux ratio | intrinsic clearance, human liver microsomes | intrinsic clearance, rat liver microsomes | aqueous solubility | fraction unbound, human plasma | fraction unbound, rat plasma
1 | CCCN(C)C(=O)Nc1cccc(-c2nnc3n2CCCCC3)c1 | 92.4 | ≤ 4.74 mL/min/kg | 44.5 mL/min/kg | 39.4 µg/mL (≈ 120 µM) |  | 
2 | c1cnc(NCc2cccc3cnccc23)nc1 |  | 60.5 mL/min/kg | 178 mL/min/kg |  |  | 
3 | Cc1cccc(OCCCNc2cc(Cn3c(C)nc4ccccc43)nc(N)n2)c1 | 22.7 | 535 mL/min/kg | 2050 mL/min/kg | 35.5 µg/mL (≈ 88.1 µM) |  | 
4 | Cc1nccc(C2(C)CCN(CC(N)=O)CC2)n1 | 2.82 | ≤ 4.74 mL/min/kg | ≤ 10.7 mL/min/kg | 59.8 µg/mL (≈ 241 µM) |  | 
5 | Cc1noc([C@@H]2C[C@H](NC(=O)c3ccc(F)cc3)CN2C)n1 | 0.792 | 6.88 mL/min/kg | 16.3 mL/min/kg | 16.2 µg/mL (≈ 53.2 µM) |  | 
6 | O=C(CCCc1nc2ccccc2[nH]1)N1CCCC1 | 17.5 | ≤ 4.74 mL/min/kg | 85 mL/min/kg | 35.8 µg/mL (≈ 139 µM) |  | 
7 | CCn1c(=O)oc2cc(NC(=O)c3ccc(C(C)(C)C)cc3)ccc21 | 0.34 |  |  |  | 0.0162 | 0.0151
8 | Cc1c(C(=O)Nc2ccc(N3C[C@@H](C)O[C@H](C)C3)nc2)cccc1-c1ccc(OC(F)(F)F)cc1 | 1.16 | 24 mL/min/kg | 74.9 mL/min/kg |  |  | 
9 | CC(=O)NC1(C(=O)N2CCCN(C3CC3)CC2)CCC(C)CC1 (centres undefined) | 37.7 | 27.7 mL/min/kg | 80.8 mL/min/kg | 53.8 µg/mL (≈ 167 µM) |  | 
10 | O=C(NCc1cccc(O)c1)Nc1ccccc1F |  | ≤ 4.74 mL/min/kg | 58.9 mL/min/kg | 36.4 µg/mL (≈ 140 µM) |  | 
11 | CCc1nnc(NC(=O)c2ccc3cc(OC)ccc3n2)s1 | 0.248 | 35.9 mL/min/kg | 105 mL/min/kg | 4.17 µg/mL (≈ 13.3 µM) |  | 
12 | CSc1ccccc1NC(=O)CN1CCCC(c2nc3ccccc3o2)C1 (centres undefined) |  | 1120 mL/min/kg | 4670 mL/min/kg | 8.5 µg/mL (≈ 22.3 µM) |  | 
13 | CCNC(=O)N1CCC(c2nc(-c3ccccc3)no2)CC1 | 0.841 | ≤ 4.74 mL/min/kg | 44.8 mL/min/kg | 52.8 µg/mL (≈ 176 µM) |  | 
14 | Cc1cccc(CNc2cccc3c2CCN(S(C)(=O)=O)C3)c1 | 0.65 |  |  | 0.35 µg/mL (≈ 1.06 µM) |  | 
15 | COc1ccc(/C=C/C(=O)c2c(C)nc3ccccc3c2N)c(OC)c1 |  | 43.4 mL/min/kg | 814 mL/min/kg | 40.6 µg/mL (≈ 117 µM) |  | 
16 | N#Cc1ccnc(Nc2ccc(F)cc2)c1 | 0.609 | 164 mL/min/kg | 185 mL/min/kg |  |  | 
17 | CSc1ncccc1C(=O)Nc1ccc(-c2nnc(C)[nH]2)cc1 | 6.96 | ≤ 4.74 mL/min/kg | 44.1 mL/min/kg |  |  | 
18 | CC(=O)Nc1ccc(CNCCOc2ccc(F)cc2F)cc1 | 1.57 | 12.5 mL/min/kg | 114 mL/min/kg |  |  | 
19 | Cc1cc(C)c2c(N(C)CCC(C)C)ncnc2n1 | 0.862 | 14.3 mL/min/kg | 1220 mL/min/kg | 37.5 µg/mL (≈ 145 µM) |  | 
20 | Cc1cc(OCc2cc(C#N)ccc2F)ccc1N |  |  |  | 25.4 µg/mL (≈ 99.2 µM) |  | 

Row | SMILES | MDR1-MDCK efflux ratio | intrinsic clearance, human liver microsomes | intrinsic clearance, rat liver microsomes | aqueous solubility | fraction unbound, human plasma | fraction unbound, rat plasma
21 | CCOc1ccc(C(=O)Nc2cc(C(=O)OC)ccc2N2CCN(C(C)=O)CC2)cc1 | 5.81 | 21.8 mL/min/kg | 444 mL/min/kg | 2.41 µg/mL (≈ 5.66 µM) |  | 
22 | Nc1ccc(Oc2ccccc2F)nc1 | 0.53 | ≤ 4.74 mL/min/kg | 26.2 mL/min/kg | 25.6 µg/mL (≈ 125 µM) |  | 
23 | CN1CCC(O)(CNC(=O)C2CCCCCC2)CC1 | 11.2 | ≤ 4.74 mL/min/kg | 458 mL/min/kg |  |  | 
24 | COc1ccc2nc(C)nc(N3CC(O)(c4ccc(F)cc4)C3)c2c1 | 3.87 | 26.9 mL/min/kg | 468 mL/min/kg | 19.4 µg/mL (≈ 57.3 µM) |  | 
25 | COc1cc(C#N)ccc1Cn1ccnc1C(C)C | 2.82 | 17.3 mL/min/kg | 166 mL/min/kg |  |  | 
26 | Cc1cc(-c2nccs2)nc(CC2CCNCC2)n1 | 20.1 | ≤ 4.74 mL/min/kg | 38.8 mL/min/kg | 36.5 µg/mL (≈ 133 µM) |  | 
27 | CC(C)c1cc(C(C)C)c(CC(=O)NS(=O)(=O)Oc2c(C(C)C)cccc2C(C)C)c(C(C)C)c1 | 4.45 | 45.9 mL/min/kg | 170 mL/min/kg |  |  | 
28 | Cn1cc(C(=O)N2CCC(c3cc(C(F)(F)F)c4c(n3)CCNC4=O)CC2)ccc1=O | 0.752 | ≤ 4.74 mL/min/kg | ≤ 10.7 mL/min/kg | 53 µg/mL (≈ 122 µM) |  | 
29 | Cc1cc(NCC2(c3ccncc3)CC2)ncn1 | 2.49 | ≤ 4.74 mL/min/kg | 198 mL/min/kg |  |  | 
30 | C=CCNC1=C2C[C@@H](C)C[C@@H](OC)[C@@H](O)[C@@H](C)/C=C(\C)[C@@H](OC(N)=O)[C@@H](OC)/C=C\C=C(/C)C(=O)NC(=CC1=O)C2=O |  | 489 mL/min/kg | 1010 mL/min/kg |  |  | 
31 | Cc1cc(C(=O)N2CCOC(C)(C)C2)cc(C)c1OCc1cccnc1 | 2.18 | 270 mL/min/kg | 2180 mL/min/kg | 48.9 µg/mL (≈ 138 µM) |  | 
32 | CC(C)c1nc(O)c2nnn(C[C@@H]3CCCN(C(=O)C(C)(C)C)C3)c2n1 | 34.4 | 29.4 mL/min/kg | 281 mL/min/kg | 43.9 µg/mL (≈ 122 µM) |  | 
33 | Cc1noc(C(C)C)c1C(=O)Nc1ccccn1 | 0.524 | 28.4 mL/min/kg | 510 mL/min/kg | 58.3 µg/mL (≈ 238 µM) |  | 
34 | Cc1sc(NC(=O)CN2CCOC(C3CCCO3)C2)c(C)c1C (centres undefined) | 1 | 12.8 mL/min/kg | 185 mL/min/kg | 60.9 µg/mL (≈ 180 µM) |  | 
35 | c1ccc2nc(N3CCC(c4nc5ccccc5[nH]4)CC3)cnc2c1 |  |  |  | 2.4 µg/mL (≈ 7.29 µM) |  | 
36 | CCc1nc2ccc(C(=O)NCc3ccccc3)cc2nc1CC |  | 101 mL/min/kg | 943 mL/min/kg | 2.15 µg/mL (≈ 6.73 µM) |  | 
37 | Cc1cc(NC(=O)[C@H](C)N(C)C)c2ccccc2n1 | 0.813 | 9.63 mL/min/kg | 109 mL/min/kg |  |  | 
38 | CCc1ccccc1NC(=O)CCn1ccnc1-c1ccc2c(c1)OCO2 | 22.1 | 126 mL/min/kg | 891 mL/min/kg | 42 µg/mL (≈ 116 µM) |  | 
39 | COc1nc(C#N)c(N2CCOCC2)o1 |  |  |  | 44.4 µg/mL (≈ 212 µM) |  | 
40 | CCCc1cc(N2CCc3c(nc(C(C)C)n3C)C2)n2ncnc2n1 | 15.2 | 14.3 mL/min/kg | 183 mL/min/kg | 56.4 µg/mL (≈ 166 µM) |  | 

Row | SMILES | MDR1-MDCK efflux ratio | intrinsic clearance, human liver microsomes | intrinsic clearance, rat liver microsomes | aqueous solubility | fraction unbound, human plasma | fraction unbound, rat plasma
41 | O=C(c1ccncc1)N1CCC(c2cnccn2)CC1 | 2.71 | ≤ 4.74 mL/min/kg | ≤ 10.7 mL/min/kg | 61.2 µg/mL (≈ 228 µM) |  | 
42 | CC(C)Cc1cc(CN2CCN(S(=O)(=O)N3CCOCC3)CC2)n[nH]1 | 23.3 | 21.5 mL/min/kg | 284 mL/min/kg |  |  | 
43 | COc1ncccc1CNc1ncnc2c1cnn2C | 0.967 | ≤ 4.74 mL/min/kg | 28.8 mL/min/kg | 46.6 µg/mL (≈ 172 µM) |  | 
44 | Cn1ncc2c(NOCc3ccccc3)ncnc21 |  | 15.2 mL/min/kg | 49.6 mL/min/kg |  |  | 
45 | COc1ccc(C2(NCc3cnn(-c4ccccc4)c3)CCCC2)cc1 |  | 81.5 mL/min/kg | 976 mL/min/kg | 57.4 µg/mL (≈ 165 µM) |  | 
46 | COc1cccc(F)c1NC(=O)N1CCC(N2CC=CC2)CC1 | 8.24 | ≤ 4.74 mL/min/kg | 363 mL/min/kg |  |  | 
47 | CCc1cnc(CCNc2cncc(Cl)n2)s1 |  | 183 mL/min/kg | 855 mL/min/kg | 48 µg/mL (≈ 179 µM) |  | 
48 | COc1cccc(-c2ccc(C(=O)N(C)Cc3c(C)nn(C(C)C)c3C)o2)c1 | 1.47 | 264 mL/min/kg | 1960 mL/min/kg | 47 µg/mL (≈ 123 µM) |  | 
49 | Cc1nn(Cc2cccc(Br)c2)c(C)c1C(=O)O | 1.58 | ≤ 4.74 mL/min/kg | ≤ 10.7 mL/min/kg | 51.4 µg/mL (≈ 166 µM) |  | 
50 | O=C(CCc1ccccc1)N1CCC(c2cccc(Cc3ccc(F)cc3)n2)CC1 | 0.727 | 1000 mL/min/kg | 4270 mL/min/kg | 4.5 µg/mL (≈ 11.2 µM) |  | 
51 | CC(=O)Nc1cccc(OC(=O)N2CCOCC2)c1 | 2.62 | 7.54 mL/min/kg | ≤ 10.7 mL/min/kg | 56.7 µg/mL (≈ 215 µM) |  | 
52 | CC(=O)c1c(C)n(S(=O)(=O)c2ccc(C)cc2)c2ccc(NS(=O)(=O)c3ccc(C)cc3)cc12 |  |  |  | 0.53 µg/mL (≈ 1.07 µM) |  | 
53 | CCc1nc2ccccc2n1CC(=O)Nc1ncc(C)s1 | 29.4 | 8.53 mL/min/kg | 348 mL/min/kg | 49.2 µg/mL (≈ 164 µM) |  | 
54 | COc1c(C)cnc(Cn2cc(C#CCC(C)(C)O)c3c(Cl)nc(N)nc32)c1C |  | 58.2 mL/min/kg | 145 mL/min/kg |  |  | 
55 | N#Cc1cccc(CNCc2ccccn2)c1 | 0.554 | ≤ 4.74 mL/min/kg | 30.3 mL/min/kg |  |  | 
56 | CN(CC(=O)N(C)C)Cc1cc(C#N)ccc1F | 0.713 | ≤ 4.74 mL/min/kg | 38.1 mL/min/kg | 35.4 µg/mL (≈ 142 µM) |  | 
57 | Cc1c[nH]c(C(=O)NCC2(N3CCCCC3)CCCC2)n1 | 20.3 | 7.62 mL/min/kg | 191 mL/min/kg |  |  | 
58 | CSc1ccccc1S(=O)(=O)NC1CCC(CN(C)C)CC1 (centres undefined) | 8.91 | ≤ 4.74 mL/min/kg | 440 mL/min/kg |  |  | 
